Several values for one entry are separate records, joined by “and”; a condition that tells them apart may be missing. Equal values may be shown once.
Experiments:
[1] = tested on: FaDu mouse xenograft tumor; experiment: In vivo efficacy, FaDu mouse xenograft tumor; parameters: species or system BALB/c nude mice; settings: for Tumor volume (mm^3) Day 0: baseline at grouping
Method: I. The logarithmic growth phase BxPC-3 were collected and the cell density was adjusted to 10×10^6 cells/mL with Matrigel buffer (PBS:Matrigel=1:1). 0.2 mL of the prepared BxPC-3 cell suspension was subcutaneously injected into the right scapula of SPF female BALB/c nude mice aged 6-8 weeks.
(§1) II. The tumor diameter was measured with a vernier caliper and the tumor volume was calculated according to the formula V=0.5a×b^2 (where a is the longest diameter of the tumor and b is the shortest diameter of the tumor). […] Animals in each group were administered by tail vein injection, and the control group was given an equal volume of vehicle. The tumor volume of animals in each group was measured twice a week within 35 days after administration, and the tumor volume of animals on day 35 was compared between groups. T/C and TGI values were calculated using tumor volume. The calculation formula is as follows: T/C %=TRTV/CRTV×100% (TRTV: RTV of the treatment group; CRTV: RTV of the vehicle control group). The relative tumor volume (RTV) was calculated based on the results of tumor measurement, and the calculation formula was RTV=Vt/V0, where V0 was the average tumor volume measured at the time of grouping (i.e., D0), Vt was the average tumor volume at one measurement, and TRTV and CRTV took the same day of data.
The BxPC-3 pancreatic cancer cells in Example 3.3.1 were replaced with human pharyngeal squamous cells carcinoma FaDu, and 10 days after cell inoculation, when the average tumor volume was about 119 mm^3, animals were randomly divided into vehicle control group, […], with 6 animals in each group.

[2] = tested on: Trop2 positive cancer cells BxPC-3; experiment: Cytotoxicity assay, CellTiter-Glo, 168 h, BxPC-3; assay type: cell-based, human
Method: In brief, 3000 to 5000 cells were plated in 96-well plates, and cells were able to attach overnight. Cells were treated with indicated drugs with various concentrations for 168 h. Cell viabilities were examined by CellTiter-Glo® Luminescent Cell Viability Assay, and percentage of cell viability was calculated.

[3] = tested on: human pharyngeal squamous cells carcinoma FaDu; experiment: Cell proliferation, CellTiter Glo, 96 h, FaDu; assay type: cell-based
Method: A positive control group was set: 100 μL Puromycin at a concentration of 10 μg/mL was added to each well. […] After the administration was completed, the cells were moved to the incubator and incubated for 96 h. The 96-well plate was removed from the 37° C. cell incubator and equilibrated to room temperature for 30 minutes. After the medium was discarded, 100 μL of DMEM and 50 μL of CellTiter Glo reagent were added to each well, and the cells were shaken in the dark at 200 rpm for 15 minutes, and the luminescent signal reflecting cell viability was detected by a microplate reader.

[4] = tested on: Trop2-positive cells BxPC-3 and Trop2-negative HepG2 cells; experiment: Bystander killing in BxPC-3/HepG2 co-culture assay (BxPC-3:HepG2=2:1); assay type: cell-based, human
Method: After the treatment, the cells were moved to the incubator and incubated for 96 h. After the incubation, cells were digested, and washed once with 1×PBS, then transferred to a flow tube, and centrifuged at 2000 rpm for 3 min. The supernatant was then discarded, and the cell amount and cell viability were detected. […] The cells were washed with 1×PBS, the supernatant was discarded after centrifugation, 200 μL of 5 μg/mL human IgG Fe antibody was added, and the resulting cells were continued to incubate at 4° C. for 30 min after mixing. Finally, the cells were washed with 1×PBS, the supernatant was discarded after centrifugation, and the cells were resuspended in PBS, detected by flow cytometry and analyzed by FlowJo software.

[5] = tested on: human breast cancer BR-05-0028 model; experiment: In vivo efficacy, human breast cancer BR-05-0028 mouse xenograft tumor; parameters: species or system BALB/c nude mice
Method: as §1, with “The tumor volume of animals in each group was measured twice a week within 35 days after administration, and the tumor volume of animals on day 35 was compared between groups.” left out
The human breast cancer BR-05-0028 model (IHC 3±) was derived from tumor samples resected in clinical surgery. The tumor samples were inoculated into nude mice at the P0 generation, and the tumor tissue used in this example was the P5 generation. Tumor tissue with a volume of about 30 mm^3 was subcutaneously inoculated into the right back dorsum of SPF female BALB/c nude mice aged 6-8 weeks.

[6] = tested on: MDA-MB-468 mouse xenograft tumor; experiment: In vivo efficacy, MDA-MB-468 mouse xenograft tumor; parameters: species or system BALB/c Nude mice; settings: 4.5 mg/kg, intravenously
Method: The MDA-MB-468 tumor cells (ATCC, HTB-132) were maintained in vitro as a monolayer culture in L-15 medium supplemented with 10% fetal bovine serum and 1% Antibiotic-Antimycotic at 37° C. in an atmosphere of 0% CO2 in air. The cells growing in an exponential growth phase will be harvested and counted for tumor inoculation. For in vivo anti-tumor efficacy study, 10×10^6 MDA-MB-468 human breast cancer cells (Trop2 positive) in 0.2 mL of PBS with Matrigel (1:1) were inoculated subcutaneously in the right flank in BALB/c Nude mice. […] The tumor volume was measured twice weekly with a caliper. T/C and TGI values were calculated using tumor volume.

[7] = Table 6, same process as effect example 1.2
[8] = Table 15, single dose, 5 mg/kg, Day 21

DS1062a
Tumor volume (mm^3) Day 28 ([1]; Table 18, 3 mg/kg): 28 mm^3 and 28 ± 14 mm^3 | T/C (%) ([1]; Table 18, 3 mg/kg, Day 28): 1.68% | TGI (%) ([1]; Table 18, 3 mg/kg, Day 28): 106.11% | Tumor volume (mm^3) Day 0 ([1]; Table 18, 3 mg/kg): 123 ± 13 mm^3 | Tumor volume (mm^3) Day 31 ([1]; Table 21, 2 mg/kg): 296 mm^3 and 296 ± 125 mm^3 | T/C (%) ([1]; Table 21, 2 mg/kg, Day 31): 15.47% | TGI (%) ([1]; Table 21, 2 mg/kg, Day 31): 90.15% | Tumor volume (mm^3) Day 0 ([1]; Table 21, 2 mg/kg): 119 ± 11 mm^3 | tumor growth inhibition (in words) ([1]; effect example 3.2.3, 3 mg/kg, after 28 days): could significantly inhibit FaDu tumor growth | tumor growth inhibition (in words) ([1]; effect example 3.3.3, 2 mg/kg, after 31 days): could significantly inhibit tumor growth | IC50 [2]: 0.692 nM | inhibition of proliferation (in words) [3]: could inhibit the proliferation of FaDu cells | IC50 ([3]; Table 7): 0.551 nM | Amount of cells (10^4) BxPC-3 ([4]; Table 5, 10 nM): 12.25 10^4 | Amount of cells (10^4) HepG2 ([4]; Table 5, 10 nM): 144.75 10^4 | Cell proportion (%) BxPC-3 ([4]; Table 5, 10 nM): 7.8% | Cell proportion (%) HepG2 ([4]; Table 5, 10 nM): 92.2% | Number of viable cells (10^4) ([4]; Table 5, 10 nM, whole co-culture): 157.0 10^4 | Amount of cells (10^4) BxPC-3 [4, 7]: 12.25 10^4 | Amount of cells (10^4) HepG2 [4, 7]: 144.75 10^4 | Cell proportion (%) BxPC-3 [4, 7]: 7.8% | Cell proportion (%) HepG2 [4, 7]: 92.2% | Number of viable cells (10^4) ([4]; Table 6, same process as effect example 1.2, whole co-culture): 157.0 10^4 | bystander killing effect (in words) ([4]; effect example 1.3): had bystander killing effects | Tumor volume (mm^3) Day 21 ([5]; Table 15, single dose, 5 mg/kg): 8 ± 1 mm^3 | T/C (%) [5, 8]: 0.48% | TGI (%) [5, 8]: 111.60% | Tumor volume (mm^3) Day 0 ([5]; Table 15, single dose, 5 mg/kg, baseline at grouping): 171 ± 23 mm^3 | tumor growth inhibition (in words) ([5]; effect example 3.1.3, 5 mg/kg (ADC-1 also 10 mg/kg), after 21 days): able to significantly inhibit tumor growth | Tumor volume (mm^3) on day 35 [6]: 9 ± 9 mm^3 | T/C (%) ([6]; day 35): 1.35% | TGI (%) ([6]; day 35): 136.06%
